According to patent publication US20140357633A1, “COMPOUNDS FOR INHIBITING THE INTERACTION OF BCL2 WITH BINDING PARTNERS” (NOVARTIS AG, priority 2011, published 2014):

Legend:
[1] = target: BCL-2 (binding to BAD peptide) (Homo sapiens, UniProt P10415); experiment: SPR (Biacore) solution inhibition assay, BCL-2 binding to immobilized BAD peptide; conditions: biotinylated BAD peptide surface, 56 nM BCL-2, 25° C.; range = high and low IC50 values from multiple experiments; read-out: BCL2_SPR IC50 BAD
From the text: (§1) The present method includes utility of a Surface plasmon resonance (SPR)-based biosensor (Biacore™′ GE Healthcare, Uppsala, Sweden) to characterize BCL-2 inhibitors.
(§2) Biacore™ utilizes the phenomenon of surface plasmon resonance (SPR) to detect and measure binding interactions. In a typical Biacore experiment, one of the interacting molecules (ligand) is immobilized on a flexible dextran matrix while the interacting partner (analyte) is allowed to flow across that surface. A binding interaction results in an increase in mass on the sensor surface and a corresponding direct change in the refractive index of the medium in the vicinity of the sensor surface. Changes in refractive index or signal are recorded in resonance units (R.U.) Signal changes due to association and dissociation of complexes are monitored in a non-invasive manner, continuously and in real-time, the results of which are reported in the form of a sensorgram.
(§3) The SPR assay is configured to examine solution inhibition of BCL-2 binding to peptide derivatized sensor surfaces to generate IC50 values as a measure of inhibitor potency.
(§4) Biacore™ A100 (GE Healthcare, Uppsala, Sweden) was used to conduct all experiments reported herein. Sensor surface preparation and all interaction analyses experiments were performed at 25° C. Reagents were purchased from GE Healthcare. Running buffer containing 10 mM Hepes, pH7.4, 150 mM sodium chloride, 1.25 mM Dithiothreitol, 3% Dimethyl sulfoxide and 0.05% polysorbate 20 were utilized throughout all analyses.
(§5) Biotinylated BAK, BAD and NOXA peptides were diluted to 10 nM in running buffer and captured onto a sensor surface pre-derivatized with streptavidin (sensor chip SA) to peptide surface densities in the range 50-100 R.U. Peptide captured surfaces were blocked with 500 μM PEO2-Biotin.
(§6) Interaction analyses were performed by first equilibrating each sample within a 6 point three fold compound dilution series in the range 16 μM to […] with 56 nM BCL-2 for one hour during instrument start-up procedures. Protein compound mixtures were then injected over each peptide surface in parallel for 60 seconds at a flow-rate of 30 μL/min. 56 nM BCL-2 control samples were also prepared and run at regular intervals during the assay. Surface regeneration was performed at the end of each analysis cycle by two 30 second injections of 10 mM Glycine, pH 2.5, 1M Sodium Chloride, 0.05% polysorbate 20. Samples and control compound samples were run in duplicate and controls are also run at regular intervals during the assay to monitor surface and assay performance.
(§7) Data analyses are carried out using Biacore™ A100 evaluation software v1.1 to validate assay quality. Binding level report points were used relative to BCL-2 control samples to calculate % inhibition values for each compound protein mixture. […] The range of data shown in table 1 represents the high and low IC50 values obtained from multiple experiments.

[2] = target: BCL-2 (binding to BAK peptide) (Homo sapiens, UniProt P10415); experiment: SPR (Biacore) solution inhibition assay, BCL-2 binding to immobilized BAK peptide; conditions: biotinylated BAK peptide surface, 56 nM BCL-2, 25° C.; range = high and low IC50 values from multiple experiments; read-out: BCL2_SPR IC50 BAK
From the text: as §1, §2, §3, §4, §5, §6, §7

Sequence of BCL-2 (binding to BAK peptide) (P10415 whole entry): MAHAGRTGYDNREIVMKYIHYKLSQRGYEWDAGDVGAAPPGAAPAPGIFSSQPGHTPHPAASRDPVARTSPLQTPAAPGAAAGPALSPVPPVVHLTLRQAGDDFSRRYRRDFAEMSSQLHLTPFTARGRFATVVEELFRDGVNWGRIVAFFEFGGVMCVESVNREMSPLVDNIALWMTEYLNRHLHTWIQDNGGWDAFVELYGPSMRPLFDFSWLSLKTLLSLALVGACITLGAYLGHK
Sequence of BCL-2 (binding to BAD peptide) (P10415 whole entry): as above

SMILES	IC50 [1] [nM]	IC50 [2] [nM]
CCCCN(CCCC)C(=O)c1cc(C)n(-c2ccc(NC(=O)C(CC(=O)OCC)c3ccccc3)cc2C(=O)N2Cc3ccccc3C[C@H]2CO)n1 (stereo partly drawn) [Example 53]	181 to 187	162
CCCCN(CCCC)C(=O)c1cc(C)n(-c2ccc(NC(=O)Cc3nc(-c4ccccc4)oc3C)cc2C(=O)N2Cc3ccccc3C[C@H]2CO)n1 [Example 106]	131 to 140	106 to 110
CCCCN(CCCC)C(=O)c1cc(C)n(-c2ccc(NC(=O)c3cccnc3Nc3cccc(C(F)(F)F)c3)cc2C(=O)N2Cc3ccccc3C[C@H]2CO)n1 [Example 150]	431 to 444	597 to 598
CCCCN(CCCC)C(=O)c1cc(C)n(-c2ccc(NC(=O)c3[nH]c4ccccc4c3-c3ccccc3)cc2C(=O)N2Cc3ccccc3C[C@H]2CO)n1 [Example 148]	619 to 638	595 to 598
CCCCN(CCCC)C(=O)c1cc(C)n(-c2ccc(NC(=O)c3nn(-c4ccccc4)c(=O)cc3O)cc2C(=O)N2Cc3ccccc3C[C@H]2CO)n1 [Example 94]	25.7 to 31.7	30.7 to 31.1
CCCCN(CCCC)C(=O)c1cc(C)n(-c2ccc(NC(=O)CC(C)S(=O)(=O)c3ccc(Cl)cc3)cc2C(=O)N2Cc3ccccc3C[C@H]2CO)n1 (stereo partly drawn) [Example 90]	156 to 210	159 to 187
CCCCN(CCCC)C(=O)c1cc(C)n(-c2ccc(NC(=O)c3cc4c(OC)c(OC)ccc4[nH]3)cc2C(=O)N2Cc3ccccc3C[C@H]2CO)n1 [Example 149]	142 to 164	161 to 162
CCCCN(CCCC)C(=O)c1cc(C)n(-c2ccc(NC(=O)CCc3cn4cccnc4n3)cc2C(=O)N2Cc3ccccc3C[C@H]2CO)n1 [Example 79]	369 to 398	299 to 351
CCCCN(CCCC)C(=O)c1cc(C)n(-c2ccc(NC(=O)C(Cc3ccccc3)(Cc3ccccc3)C(=O)O)cc2C(=O)N2Cc3ccccc3C[C@H]2CO)n1 [Example 26]	46 to 63.1	43.7 to 54.5
CCCCN(CCCC)C(=O)c1cc(C)n(-c2ccc(NC(=O)OC)cc2C(=O)N2Cc3ccccc3C[C@H]2CO)n1 [Example 12]	619 to 892	567 to 575
CCCCN(CCCC)C(=O)c1cc(C)n(-c2ccc(NC(=O)c3cc(S(N)(=O)=O)ccc3OC)cc2C(=O)N2Cc3ccccc3C[C@H]2CO)n1 [Example 71]	93.5 to 99.9	72 to 74.7
CCCCN(CCCC)C(=O)c1cc(C)n(-c2ccc(NC(=O)c3ccc(OC(F)(F)F)cc3)cc2C(=O)N2Cc3ccccc3C[C@H]2CO)n1 [Example 93]	1850 to 1900	1770 to 1830
CCCCN(CCCC)C(=O)c1cc(C)n(-c2ccc(NC(=O)c3cc4cc(O)ccc4[nH]3)cc2C(=O)N2Cc3ccccc3C[C@H]2CO)n1 [Example 87]	350 to 375	486 to 509
CCCCN(CCCC)C(=O)c1cc(C)n(-c2ccc(NC(=O)c3cc(OC)cc([N+](=O)[O-])c3OC)cc2C(=O)N2Cc3ccccc3C[C@H]2CO)n1 [Example 132]	332 to 338	246 to 248
CCCCN(CCCC)C(=O)c1cc(C)n(-c2ccc(NC(=O)COc3ccc4ccccc4c3)cc2C(=O)N2Cc3ccccc3C[C@H]2CO)n1 [Example 126]	60 to 61.4	48.8 to 50.5
CCCCN(CCCC)C(=O)c1cc(C)n(-c2ccc(NC(=O)c3cc(-c4ccccc4)nn3-c3ccc(F)cc3)cc2C(=O)N2Cc3ccccc3C[C@H]2CO)n1 [Example 120]	726 to 732	494 to 559
CCCCN(CCCC)C(=O)c1cc(C)n(-c2ccc(NC(=O)CS(=O)(=O)c3ccccc3)cc2C(=O)N2Cc3ccccc3C[C@H]2CO)n1 [Example 152]	348 to 392	339 to 358
CCCCN(CCCC)C(=O)c1cc(C)n(-c2ccc(NC(=O)C(CC(=O)O)c3ccccc3)cc2C(=O)N2Cc3ccccc3C[C@H]2CO)n1 (stereo partly drawn) [Example 2, 4-((4-(3-(dibutylcarbamoyl)-5-methyl-1H-pyrazol-1-yl)-3-((S)-3-(hydroxymethyl)-1,2,3,4-tetrahydroisoquinoline-2-carbonyl)phenyl)amino)-4-oxo-3-phenylbutanoic acid]	30.3 to 53.6	27.5 to 44.8
CCCCN(CCCC)C(=O)c1cc(C)n(-c2ccc(NC(=O)c3cn4cc(Cl)ccc4n3)cc2C(=O)N2Cc3ccccc3C[C@H]2CO)n1 [Example 43]	527 to 597	416 to 491
CCCCN(CCCC)C(=O)c1cc(C)n(-c2ccc(NC(=O)[C@@H]3COc4ccccc4O3)cc2C(=O)N2Cc3ccccc3C[C@H]2CO)n1 [Example 65]	172 to 173	137 to 140

SMILES	IC50 [1] [nM]	IC50 [2] [nM]
CCCCN(CCCC)C(=O)c1cc(C)n(-c2ccc(NC(=O)c3ccc(Oc4ccc(F)cc4)cc3)cc2C(=O)N2Cc3ccccc3C[C@H]2CO)n1 [Example 91]	> 16000	3740 to 4130
CCCCN(CCCC)C(=O)c1cc(C)n(-c2ccc(NC(=O)C(C)CC(=O)O)cc2C(=O)N2Cc3ccccc3C[C@H]2CO)n1 (stereo partly drawn) [Example 37]	172 to 174	127 to 129
CCCCN(CCCC)C(=O)c1cc(C)n(-c2ccc(NC(=O)COc3ccc(OC)cc3)cc2C(=O)N2Cc3ccccc3C[C@H]2CO)n1 [Example 24]	8620 to 11900	6420 to 8640
CCCCN(CCCC)C(=O)c1cc(C)n(-c2ccc(NC(=O)c3n[nH]c4c3CCC4)cc2C(=O)N2Cc3ccccc3C[C@H]2CO)n1 [Example 112]	964 to 1030	696 to 875
CCCCN(CCCC)C(=O)c1cc(C)n(-c2ccc(NC(=O)c3ncccc3O)cc2C(=O)N2Cc3ccccc3C[C@H]2CO)n1 [Example 62]	318 to 326	238 to 277
CCCCN(CCCC)C(=O)c1cc(C)n(-c2ccc(NC(=O)COc3cccnc3)cc2C(=O)N2Cc3ccccc3C[C@H]2CO)n1 [Example 32]	234 to 245	203 to 205
CCCCN(CCCC)C(=O)c1cc(C)n(-c2ccc(NC(=O)C3=CC(c4ccccc4)NC(=O)N3)cc2C(=O)N2Cc3ccccc3C[C@H]2CO)n1 (stereo partly drawn) [Example 51]	155 to 158	122 to 126
CCCCN(CCCC)C(=O)c1cc(C)n(-c2ccc(NC(=O)c3ccc(-c4ccc(OC)cc4)[nH]c3=O)cc2C(=O)N2Cc3ccccc3C[C@H]2CO)n1 [Example 156]	1740 to 1800	1830 to 2380
CCCCN(CCCC)C(=O)c1cc(C)n(-c2ccc(NC(=O)c3sccc3C)cc2C(=O)N2Cc3ccccc3C[C@H]2CO)n1 [Example 81]	1420 to 1460	1040 to 1490
CCCCN(CCCC)C(=O)c1cc(C)n(-c2ccc(NC(=O)CCCOCc3ccccc3)cc2C(=O)N2Cc3ccccc3C[C@H]2CO)n1 [Example 133]	410 to 438	310 to 360
CCCCN(CCCC)C(=O)c1cc(C)n(-c2ccc(NC(=O)C(C)c3ccccc3)cc2C(=O)N2Cc3ccccc3C[C@H]2CO)n1 (stereo partly drawn) [Example 29]	162 to 183	181 to 191
CCCCN(CCCC)C(=O)c1cc(C)n(-c2ccc(NC(=O)C(CC(=O)OC)c3ccccc3)cc2C(=O)N2Cc3ccccc3C[C@H]2CO)n1 (stereo partly drawn) [Example 6]	120 to 121	105 to 107
CCCCN(CCCC)C(=O)c1cc(C)n(-c2ccc(NC(=O)C(C)CC(=O)O)cc2C(=O)N2Cc3ccccc3C[C@H]2CO)n1 (stereo partly drawn) [Example 100]	172 to 174	127 to 129
CCCCN(CCCC)C(=O)c1cc(C)n(-c2ccc(NC(=O)CC(C(=O)O)c3ccccc3)cc2C(=O)N2Cc3ccccc3C[C@H]2CO)n1 (stereo partly drawn) [Example 42]	51.1 to 59.1	55 to 61.3
CCCCN(CCCC)C(=O)c1cc(C)n(-c2ccc(NC(=O)CN3CC(c4ccccc4)CC3=O)cc2C(=O)N2Cc3ccccc3C[C@H]2CO)n1 (stereo partly drawn) [Example 119]	111 to 112	94 to 98.2
CCCCN(CCCC)C(=O)c1cc(C)n(-c2ccc(NC(=O)COc3ccccc3Cl)cc2C(=O)N2Cc3ccccc3C[C@H]2CO)n1 [Example 23]	4850 to 4930	3900 to 4170
CCCCN(CCCC)C(=O)c1cc(C)n(-c2ccc(NC(=O)Cc3cccnc3)cc2C(=O)N2Cc3ccccc3C[C@H]2CO)n1 [Example 118]	164 to 171	139 to 153
CCCCN(CCCC)C(=O)c1cc(C)n(-c2ccc(NC(=O)C(CC(=O)O)Cc3ccccc3)cc2C(=O)N2Cc3ccccc3C[C@H]2CO)n1 (stereo partly drawn) [Example 15]	53.4 to 59	44.2 to 47.7
CCCCN(CCCC)C(=O)c1cc(C)n(-c2ccc(NC(=O)Oc3ccccc3)cc2C(=O)N2Cc3ccccc3C[C@H]2CO)n1 [Example 10]	501 to 522	283 to 308
